# Test results as given in patent US20140243404A1, “UNIQUE HALOGEN-INDUCED CYCLIZATIONS, REAGENTS THEREFOR, AND COMPOUNDS PRODUCED THEREBY” (The Trustees of Columbia University in the City of New York, priority 2010, published 2014).
# Read-outs that look alike come from different tables or passages of the source.
# Legend:
# [1] = Storage and handling stability of the halonium reagents; assay type: physicochemical
# [2] = Solubility of the halonium reagents in organic solvents; assay type: physicochemical
# [3] = system: reverse transcriptases of the Human Immunodeficiency Virus; conditions: published indications, refs 7c, 7d, cited from earlier work
structure (smiles),measurement,setting,value
"CC[S+](Br)CC [BDSB, bromodiethylsulfonium bromopentachloroantimonate]",stable for,"[1]; ambient temperature, enclosed vial",at least 1 week
same,stable for,[1]; −20° C.,a year or more
same,solubility,"[2]; acetone, methanol, ethanol, THF, reacts with these solvents",soluble
same,solubility,"[2]; ambient temperature, CH2Cl2, 1,2-dichloroethane, chloroform, toluene",moderately to slightly soluble
same,solubility,"[2]; ambient temperature, MeNO2, EtNO2, MeCN, DMSO, DMF, EtOAc",fully soluble
same,solubility,"[2]; ambient temperature, benzene, hexanes, pentane",insoluble
same,solubility,[2]; several organic solvents,good solubility
CC1=CC[C@H]2C(C)(C)[C@@H](Br)CC[C@]2(C)[C@@H]1Cc1cc(O)c(CC(=O)O)cc1O [peyssonoic acid A],inhibitor of the reverse transcriptases of the Human Immunodeficiency Virus,[3],possessed such activity
C=C1CC[C@H]2C(C)(C)[C@@H](Br)CC[C@]2(C)[C@@H]1Cc1cc(O)c(C=O)cc1O [peyssonol A],inhibitor of the reverse transcriptases of the Human Immunodeficiency Virus,[3],allosteric inhibitor of the reverse transcriptases
same,inhibitor of the reverse transcriptases of the Human Immunodeficiency Virus,[3]; listed as peysonnol A,possessed such activity
"CC[S+](Cl)CC [CDSC, Chlorodiethylsulfonium hexachloroantimonate]",stable for,[1]; −20° C.,at least several months
